Measurements as given in EP3829564B1, “CURCUMIN AND HOMOTAURINE FOR USE IN PREVENTING OR TREATING COGNITIVE DECLINE FORMS” (ALERE VITAM S.R.L., priority 2018, dated 2020).

What was measured:
Aβ42 peptide = target: T1, Aβ42 peptide (Homo sapiens, UniProt P05067); assay: Thioflavin-T assay for inhibition of Aβ 42 aggregation; assay type: biochemical
T1 construct: Beta-amyloid (Aβ 1-42) aggregation studies were conducted; purchased AnaSpec, Inc, Fremont, CA
Experimental: In the present study, the fluorescence spectroscopy with thioflavin T was used to examine the effects of curcumin (CUR), homotaurine (HOM) taken individually and a combination of the two compounds as disclosed herein on the formation of toxic Aβ aggregates.
Thioflavin-T (Th-T dosage), analysis for the inhibition of the Aβ 42 aggregation (also referred to AB42).
Beta-amyloid (Aβ 1-42) aggregation studies were conducted using the SensoLyte ThT Ab42 aggregation kit (AnaSpec, Inc, Fremont, CA).
The Aβ42 peptide was dissolved in a cold analysis buffer (4 °C) and allowed to hydrate for a few minutes. The solution was centrifuged at 10,000 rpm for 5 minutes at 4°C to centrifuge any precipitated material. The fibrillation reaction was initiated by adding thioflavin dye (ThT) at a concentration of 2 mmol/L.
Three test samples (CUR; HOM; CUR + HOM) were added in a volume of 5 µL and the reaction was started by adding the Aβ42 peptide solution. The final volume of the test samples was 100 µL. At the same time, the positive control and the negative control containing nordihydroguaiaretic acid (NDGA), a well-defined inhibitor of Ab aggregation, at the final concentration of 100 µmol/L were established. Fluorescence intensity was measured at 37°C with Ex/Em ¼ 440 nm/484 nm and by shaking of 15s between readings using the microplate reader (Synergy H1; BioTek, Winooski, VT). The fluorescence intensity measurements expressed as relative fluorescence units (RFU) were taken for 90 minutes at 5-minute intervals.

HO-1 [1] = details: 6 hours; for increase in HO-1 mRNA: 5, 10, 15 and 30 µM, cortical neurons, astrocytes and endothelial cells; for concentration of maximum HO-1 mRNA: tested 5, 10, 15 and 30 µM
Experimental: (§1) To confirm that the expression of the HO-1 gene measured at the mRNA level corresponded to an equivalent increase in heme oxygenase activity, this activity was measured at the same doses of curcumin and homotaurine 6 and 24 hours after administration.

HO-1 [2] = assay: cells; details: 6 h, read-out: maximum increase in HO-1 mRNA, relative to the non-inducible paralogue HO-2 gene
Experimental: as §1

[3] = system: transgenic Alzheimer's mouse (Tg2576); details: dietary regime containing curcumin for 6 months; cited from earlier work
Aβ42 oligomer = target: T2, Aβ42 oligomer (Homo sapiens, UniProt P05067); details: prior art statement; cited from earlier work
T2 construct: prevents the formation and the toxicity of Aβ42 oligomer

Aβ40 = Aβ40 (Homo sapiens, UniProt P05067); details: compared with ibuprofen and naproxen; cited from earlier work
heme oxygenase = assay: Heme oxygenase activity in treated cells; assay type: cell-based; details: same doses; 6 and 24 hours after administration
Experimental: as §1

Nrf2 = Nrf2 protein expression in nuclear extracts (Western blot); assay type: cell-based, rat; details: 25 µM; for expression of the Nrf2 protein in nuclear extracts: cortical neurons, astrocytes and endothelial cells, over time, three independent Western blots
Experimental: Three different cell lines, cortical neurons, astrocytes and endothelial cells, were exposed to curcumin, homotaurine or a combination of the two compounds at the final concentration of 25 µM to evaluate the expression of the Nrf2 protein over time.
The rat hippocampal neurons (H 19-7) were purchased by the American Type Culture Collection (Manassas, VA, USA) and cultured according to the manufacturer's instructions.
The neurons were washed twice with 1X PBS. The cells were then collected in 1 ml of 1X PBS and centrifuged at 3000 rpm for 3 min at 4°C. The cell pellet was carefully resuspended in […] of cold buffer containing HEPES 10 mM (pH 7.9), KCI 10 mM, EDTA 0.1 mM, EGTA 0.1 mM, DTT 1 µM and complete protease inhibitor cocktail (Roche, Mannheim, Germany).
The pellet was then incubated on ice for 15 minutes to allow the cells to swell. After this time, 15 µl of 10% of NP-40 were added and the tube was vortexed for 10 s. The homogenate was then centrifuged at 3000 rpm for 3 min at 4°C and the nuclear pellet was resuspended in 30 µl of cold buffer consisting of HEPES 20 mM (pH 7.9), NaCl 0,4 M, EDTA 1 mM, EGTA 1 mM, DTT 1 µM and protease inhibitors. The pellet was then incubated on ice for 15 minutes and vortexed for 10-15 s every 2 minutes. The nuclear extract was finally centrifuged at 13,000 rpm for 5 minutes at 4°C. The supernatant containing the nuclear proteins was resolved with SDS-polyacrylamide gel and subjected to immunoblot analysis using anti-Nrf2 antibodies (dilution 1: 500) and anti-Sp1 (dilution 1: 500).

[4] = fibrillation time 30 min and 90 min, vs control

T1 sequence (P05067 672-713 limits assumed): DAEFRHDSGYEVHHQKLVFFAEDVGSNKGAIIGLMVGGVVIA
T2 sequence (P05067 672-713): as the sequence (P05067 672-713 limits assumed) above
Aβ40, sequence (P05067 672-711): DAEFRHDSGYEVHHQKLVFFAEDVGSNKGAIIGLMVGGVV

Row | Compound | Aβ aggregation (ThT fluorescence) (Aβ42 peptide; 100 µmol/L, control inhibitor) | increase in HO-1 mRNA (HO-1 [1]) | concentration of maximum HO-1 mRNA (HO-1 [1]) [µM] | Aβ aggregation (ThT fluorescence) (Aβ42 peptide; [4]) | maximal fold induction at 15 µM (HO-1 [2]) | cognitive deficits induced by Aβ amyloid [3] | indices of oxidative damage and inflammation in the brain [3] | concentration preventing formation and toxicity of Aβ42 oligomer (Aβ42 oligomer) [µM] | Aβ40 aggregation inhibition (Aβ40) | heme oxygenase activity (heme oxygenase) | time Nrf2 expression remained upregulated (Nrf2; after treatment) | expression of the Nrf2 protein in nuclear extracts (Nrf2)
1 | CC(Cc1ccc(O)c(O)c1)C(C)Cc1ccc(O)c(O)c1 (centres unmarked) [NDGA, nordihydroguaiaretic acid] | inhibitor of the Aβ aggregation (p <.001) |  |  |  |  |  |  |  |  |  |  | 
2 | COc1cc(C=CC(=O)CC(=O)C=Cc2ccc(O)c(OC)c2)ccc1O [curcumin, 1,7-bis [4-Hydroxy-3-methoxyphenyl]-1,6-heptadiene-3,5-dione] |  | dosedependent increase in HO-1 mRNA | 15 | significantly influence the fibrillation reaction | ~6 | reverses the cognitive deficits induced by Aβ amyloid | suppression of the indices of the oxidative damage and the inflammation in the brain | 0.1 to 11.0 | better than ibuprofen and naproxen | comparable to the results obtained by looking at cellular mRNAs | up to 12 hours | significant timedependent increase
3 | NCCCS(=O)(=O)O [homotaurine, 3-amino-1-propanesulfonic acid] |  | much less active in inducing the expression of the HO-1 gene | 15 | significantly influence the fibrillation reaction |  |  |  |  |  | comparable to the results obtained by looking at cellular mRNAs |  | lower increase in nuclear Nrf2
